Test results published in BigSolDB 2.1.

N[C@@H](Cc1ccccc1)C(=O)O
solubility (mole fraction)
Conditions | 283.15 K | 288.15 K | 293.15 K | 298.15 K | 303.15 K | 308.15 K | 313.15 K | 318.15 K | 323.15 K | 328.15 K
in 1,4-dioxane | – | 1.86e-05 | 2.37e-05 | 3.09e-05 | 3.5e-05 | 3.9e-05 | 4.53e-05 | 5.92e-05 | 8.28e-05 | 0.000118
in acetone | 8.09e-05 | 0.000104 | 0.000131 | 0.000153 | 0.000176 | 0.000226 | 0.000293 | 0.00033 | 0.000375 | –
in acetonitrile | 7.9e-06 | 9.3e-06 | 1.12e-05 | 1.55e-05 | 1.8e-05 | 2.4e-05 | 3.67e-05 | 4.72e-05 | 5.69e-05 | –
in ethanol | 0.000125 | 0.000136 | 0.000151 | 0.000165 | 0.000177 | 0.000191 | 0.000208 | 0.000222 | 0.000231 | –
in ethyl acetate | 1.33e-05 | 1.49e-05 | 1.95e-05 | 2.06e-05 | 2.37e-05 | 3.38e-05 | 5.38e-05 | 9.29e-05 | 0.000194 | –
in isobutanol | 7.49e-05 | 7.77e-05 | 9.15e-05 | 0.000124 | 0.000158 | 0.000187 | 0.000224 | 0.000278 | 0.000323 | –
